US20230043678A1, “USE OF 5-METHYLTETRAHYDROFOLATE” (priority 2019, published 2023)
Read-outs that look alike come from different tables or passages of the source.

Columns and labels:
[1] = test system: zebrafish embryos; settings: 30 mM HCHO
[2] = test system: zebrafish embryos
Method: Transgenic zebrafish (fli-1:EGFP) were from the Model Animal Research Center of Nanjing University. Adult zebrafish aged less than 1 were used for experiment and fed at a water pH value of 7±0.2, a temperature around 28° C. and a ratio of illumination to darkness of 14 h:10 h, and with Artemia salina eggs twice a day. Three zebrafish, one female, two males, were placed in a spawning box the night before and eggs were collected the next morning. Fish eggs were placed in an embryo culture medium (prepared with 0.2 g/L of sea salt) and cultured at 28° C. […] Dead embryos were cleaned up in time. A phenotype of malformation was observed, the number of all abnormal zebrafish where the malformation was present was recorded and a malformation rate and a rescue rate of each group were calculated. Morphological defects, a heart rate, cardiac morphology and other indicators were observed and evaluated by an SMZ745T inverted stereomicroscope.

[3] = test system: zebrafish embryos; remark: listed apart in the source
Method: Transgenic zebrafish (fli-1:EGFP) were from the Model Animal Research Center of Nanjing University. Adult zebrafish aged less than 1 year were used for experiment and fed at a water pH value of 7±0.2, a temperature around 28° C. and a ratio of illumination to darkness of 14 h:10 h, and with Artemia salina eggs twice a day. Three zebrafish, one female, two males, were placed in a spawning box the night before and eggs were collected the next morning. Fish eggs were placed in an embryo culture medium (prepared with 0.2 g/L of sea salt) and cultured at 28° C.
Zebrafish embryos were cultured in 24-well plates with 10 embryos per well at 2 hpf in a dosing manner, drug solutions of the above concentrations in the table were separately added, termination was conducted at 8 hpf, and the embryos were washed and transferred to an egg solution for continuous culture to 72 hpf. Dead embryos were cleaned up in time. Each experiment was conducted in triplicate.
A phenotype of malformation was observed, the number of all abnormal zebrafish where the malformation was present was recorded and a malformation rate and a rescue rate of each group were calculated. Morphological defects, a heart rate, cardiac morphology and other indicators were observed and evaluated by an SMZ745T inverted stereomicroscope.

[4] = test system: zebrafish embryos; remark: listed apart in the source
Method: A table was listed below for details.
5-Selected concentrations of methyltetrahydrofolate in the experiment were recorded in the table.

## C=O [HCHO, formaldehyde]
[1]
  lethality and teratogenicity to zebrafish: lethal but not teratogenic to zebrafish
  pericardium edema and heart rate (48 hpf), body length (72 hpf): had no effect on the pericardium edema, the heart rate and the body length of the zebrafish
  survival rate of embryos: severely lead to a low survival rate of embryos
[1]; 8 hpf
  embryo development: delayed development of the zebrafish embryos
[1]; 72 hpf
  heart shape and lower intestinal network blood vessels: normal heart shape and normal development of lower intestinal network blood vessels

## CN(Cc1cnc2nc(N)nc(N)c2n1)c1ccc(C(=O)N[C@@H](CCC(=O)O)C(=O)O)cc1 [MTX, methotrexate]
[2]; 1.5 mM MTX
  pericardium edema and 10 s heart rate (48 hpf), body length (72 hpf): seriously led to pericardium edema, bradycardia, and a shortened body length of zebrafish
[2]; 1.5 mM MTX, 6-10 hpf
  survival rate of embryos: lower than 0.1
[2]; 1.5 mM MTX, 24 hpf
  embryo phenotype: led to hypoplasia and deformities such as small heads and short tails of zebrafish
[2]; 1.5 mM MTX, 48 hpf
  embryo phenotype: led to body bending, intersegmental vascular hypoplasia and pericardium edema of zebrafish
[2]; 1.5 mM MTX, 72 hpf
  embryo phenotype: led to a short body length and lower intestinal network vessel hypoplasia
[2]; MTX group (1.5 mM)
  Malformation rate: 100%

## CCO [EtOH, ethanol]
[3]; […] EtOH
  survival rate: significantly different from that of the control group
[3]; zebrafish, in vivo
  heart rate: led to a malformed phenotype of bradycardia in zebrafish embryos
  lower intestinal network blood vessels: led to developmental disorders of lower intestinal network blood vessels of the zebrafish
  pericardium edema: led to a malformed phenotype of pericardium edema in zebrafish embryos

## COc1cccc2c1cc([N+](=O)[O-])c1c(C(=O)O)cc3c(c12)OCO3 [aristolochic acid A]
[4]; 1-5 μM aristolochic acid A
  pericardium edema and 10 s heart rate (48 hpf), body length (72 hpf): seriously led to pericardium edema, bradycardia, and a shortened body length in zebrafish
[4]; 1-5 μM aristolochic acid A, 8 hpf and 24 hpf
  embryo phenotype: did not lead to obvious embryonic development delay, malformation and death
[4]; 2-5 μM aristolochic acid A
  survival rate of embryos: seriously reduce a survival rate of embryos
[4]; aristolochic acid A, 72 hpf
  embryo phenotype: showed a complete deficiency of development of the lower intestinal network blood vessels of the zebrafish
[4]; aristolochic acid A, increasing concentration, 48 hpf
  embryo phenotype: gradually showed pericardium edema, a slowed heart rate, curved bodies, a disappeared systemic blood flow, hematocele, yolk sac opacity
